# Reference: patent US8202997B2, “Compositions and methods for treating or preventing hypoxic or ischemic injury” (Ikaria, Inc., priority 2008, dated 2012)
# Columns and labels:
# [1] = test system: hepatic ischemia-reperfusion (I/R) injury; assay: Murine hepatic ischemia-reperfusion injury model; format: in vivo, mice; conditions: for serum liver transaminase (ALT) levels: C57-BL6/J mice, after five hours reperfusion, compared to vehicle
# Description: The ability of compound (3-1) to provide cytoprotective benefit in a model of hepatic ischemia-reperfusion (I/R) injury was tested in mice.
# The mice used in these studies were C57-BL6/J mice, 8-10 weeks, (Jackson Laboratory, Bar Harbor, Me.). Food and water were provided ad libitum. Test animals were allowed to acclimate in a temperature and humidity controlled environment prior to the commencement of experimental procedures.
# Mice were anesthetized with ketamine and xylazine and maintained with warming during surgical procedures to induce hepatic ischemia-reperfusion (UR) injury. Specifically, a midline incision was performed to expose the liver, and heparin was injected to prevent blood clotting. Both the hepatic artery and portal vein were clamped with microaneurysm clamps to render the left lateral and median lobes of the liver ischemic. Ischemia proceeded for 45 minutes, with the liver maintained in the peritoneal cavity in its original location and kept moist with gauze soaked with 0.9% normal saline. Control mice received sham surgeries, although hepatic blood flow was not reduced with a microaneurysm clamp. At the end of 45 minutes, microaneurysm clamps were removed. Serum liver transaminase levels (ALT) were tested after five hours of hepatic reperfusion using spectrophotometry and commercially available reagents (Sigma-Aldrich).
# Murine hepatic ischemia-reperfusion injury test animals were randomized to four groups. Group 1: vehicle (EtOH/PEG300+0.1% citric acid) treated; Group 2: treatment with 7 mg/kg Compound (3-1); Group 3: treatment with 15.0 mg/kg Compound (3-1). […] ALT levels were reduced in the two treatment groups (7.0 mg/kg, and 15.0 mg/kg), compared to vehicle.
# [2] = test system: myocardial ischemia-reperfusion (I/R) injury; assay: Murine myocardial ischemia reperfusion model; format: in vivo, mice
# Description: The ability of compound (3-1) to provide cardioprotective benefits in a myocardial ischemia-reperfusion (I/R) injury model was tested in mice. In this study, it is shown that bolus administration of compound (3-1) into the left ventricular cavity post-ischemia and five minutes prior to a 24-hour reperfusion period reduced myocardial ischemia and reduced myocardial infarct size as a percentage of risk area. The mice used in these studies were C57-BL6/J mice, 8-10 weeks, (Jackson Laboratory, Bar Harbor, Me.). Food and water were provided ad libitum. Test animals were allowed to acclimate in a temperature and humidity controlled environment prior to the commencement of experimental procedures.
# Mice were anesthetized with ketamine and pentobarbital sodium and maintained with warming during surgical procedures to induce myocardial ischemia-reperfusion (I/R) injury. […]
# After 24 hours of reperfusion, post-ischemia, mice were anesthetized, intubated, and connected to a rodent ventilator. […] Each of the five myocardial slices (1-mm) were weighed, areas of infarction, area at risk (AAR), and non-ischemic left ventricle were assessed with computer-assisted planimetry by an observer blinded to sample identity. […]
# Data were analyzed by 2-way ANOVA with post-hoc Bonferroni analysis using StatView software version 5.0 (SAS Institute). […]
smiles,measurement,setting,value
"c1ccc(CSSSSCc2ccccc2)cc1 [Compound 3-1, 1,4-dibenzyltetrasulfane]",serum liver transaminase (ALT) levels,[1]; 7 mg/kg intraperitoneal bolus post-ischemia (45 min),statistically significant reduction
same,serum liver transaminase (ALT) levels,[1]; 15.0 mg/kg intraperitoneal bolus post-ischemia (45 min),reduced
same,liver transaminase alanine aminotransferase (ALT) measured in serum,"[1]; mice, intraperitoneal bolus post-hepatic ischemia, immediately prior to five hour reperfusion, dose not given",decreased
same,myocardial infarct size as a percentage of risk area,"[2]; C57-BL6/J mice, 7 mg/kg bolus into left ventricular cavity after 30 minutes ischemia, five minutes prior to 24 hour reperfusion",reduced
same,myocardial ischemia,"[2]; mice, bolus into left ventricular cavity post-ischemia, five minutes prior to 24-hour reperfusion",reduced
